Assays:
Assay in all cases: relative viability (nuclei count vs DMSO), 5 days (fraction); higher = more cells survive
FH535 + Lapatinib = compound: CC1=C(C=CC(=C1)[N+](=O)[O-])NS(=O)(=O)C2=C(C=CC(=C2)Cl)Cl [FH535] + CS(=O)(=O)CCNCc1ccc(-c2ccc3ncnc(Nc4ccc(OCc5cccc(F)c5)c(Cl)c4)c3c2)o1 [Lapatinib] (partner 2 µM)
Method in brief: (§1)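 Relative viability was taken as the ratio of nuclei in treated wells to nuclei in vehicle wells. Lung cancer cell lines in 1536-well plates received compounds by pin tool one day after seeding, either one drug alone or a fixed anchor-drug dose plus five library-drug doses (not always all listed) in √10 steps. Nuclei were counted on 4× images after 5 days of treatment, and values are medians of duplicate plates.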

FH535 + Pictilisib = compound: CC1=C(C=CC(=C1)[N+](=O)[O-])NS(=O)(=O)C2=C(C=CC(=C2)Cl)Cl [FH535] + CS(=O)(=O)N1CCN(Cc2cc3nc(-c4cccc5[nH]ncc45)nc(N4CCOCC4)c3s2)CC1 [Pictilisib] (partner 1 µM)
Method in brief: as §1

FH535 + Alpelisib = compound: CC1=C(C=CC(=C1)[N+](=O)[O-])NS(=O)(=O)C2=C(C=CC(=C2)Cl)Cl [FH535] + Cc1nc(NC(=O)N2CCC[C@H]2C(N)=O)sc1-c1ccnc(C(C)(C)C(F)(F)F)c1 [Alpelisib] (partner 2 µM)
Method in brief: as §1

FH535 + Dasatinib = compound: CC1=C(C=CC(=C1)[N+](=O)[O-])NS(=O)(=O)C2=C(C=CC(=C2)Cl)Cl [FH535] + Cc1nc(Nc2ncc(C(=O)Nc3c(C)cccc3Cl)s2)cc(N2CCN(CCO)CC2)n1 [Dasatinib] (partner 0.075 µM)
Method in brief: as §1

FH535 + Phenformin = compound: CC1=C(C=CC(=C1)[N+](=O)[O-])NS(=O)(=O)C2=C(C=CC(=C2)Cl)Cl [FH535] + N=C(N)NC(=N)NCCc1ccccc1 [Phenformin] (partner 250 µM)
Method in brief: as §1

Cell Line	relative viability (FH535 + Lapatinib; first compound 0.04 µM)	relative viability (FH535 + Lapatinib; first compound 0.1265 µM)	relative viability (FH535 + Lapatinib; first compound 0.4 µM)	relative viability (FH535 + Lapatinib; first compound 1.265 µM)	relative viability (FH535 + Pictilisib; first compound 0.04 µM)	relative viability (FH535 + Pictilisib; first compound 0.1265 µM)	relative viability (FH535 + Pictilisib; first compound 0.4 µM)	relative viability (FH535 + Pictilisib; first compound 1.265 µM)	relative viability (FH535 + Alpelisib; first compound 0.04 µM)	relative viability (FH535 + Alpelisib; first compound 0.1265 µM)	relative viability (FH535 + Alpelisib; first compound 0.4 µM)	relative viability (FH535 + Alpelisib; first compound 1.265 µM)	relative viability (FH535 + Dasatinib; first compound 0.04 µM)	relative viability (FH535 + Dasatinib; first compound 0.1265 µM)	relative viability (FH535 + Dasatinib; first compound 0.4 µM)	relative viability (FH535 + Dasatinib; first compound 1.265 µM)	relative viability (FH535 + Phenformin; first compound 0.04 µM)	relative viability (FH535 + Phenformin; first compound 0.1265 µM)	relative viability (FH535 + Phenformin; first compound 0.4 µM)	relative viability (FH535 + Phenformin; first compound 1.265 µM)
201T	1.01	0.897	0.971	0.978	0.662	0.726	0.632	0.627	1.02	1.01	1.02	1	0.555	0.568	0.437	0.442	0.402	0.45	0.397	0.321
A549	0.979	0.947	0.864	0.578	0.553	0.511	0.494	0.398	0.842	0.754	0.72	0.705					0.175	0.159	0.116	0.043
A-427	0.995	1.03	0.962	0.99	0.642	0.83	0.551	0.685	1.08	1.04	1.02	1.04	0.54	0.826	0.657	0.564	0.272	0.331	0.215	0.135
ABC-1	1.21	1.08	1.36	0.983	0.601	0.878	0.702	0.735	1.18	1.25	0.954	1.29	0.584	0.619	0.4	0.36	0.263	0.209	0.184	0.179
BEN	0.678	0.674	0.604	0.398	0.548	0.617	0.459	0.41	0.929	0.998	0.868	0.748	0.247	0.351	0.258	0.214	0.231	0.25	0.263	0.221
CAL-12T	0.612	0.633	0.726	0.476	0.392	0.362	0.29	0.334	1.21	1.16	1.06	1.01	0.361	0.417	0.291	0.235	0.515	0.514	0.403	0.316
COR-L23	0.953	0.958	0.901	0.549	0.734	0.816	0.624	0.531	0.799	0.718	0.681	0.499	0.447	0.437	0.38	0.222	0.423	0.486	0.342	0.217
COR-L 105	0.274	0.345	0.372	0.398	0.27	0.385	0.384	0.394	1.09	1.17	0.789	0.971	0.292	0.325	0.314	0.333	0.411	0.461	0.405	0.382
ChaGo-K-1					0.55	1.07	0.658	0.436					0.581	0.563	0.54	0.563	0.462	0.554	0.428	0.384
EKVX	0.179	0.221	0.227	0.187	0.411	0.401	0.411	0.425	0.825	0.976	0.823	0.75	0.336	0.705	0.511	0.243	0.238	0.223	0.173	0.153
EMC-BAC-2	0.788	0.926	0.894	0.813	0.506	0.507	0.544	0.526	0.731	0.762	0.716	0.632	0.302	0.358	0.317	0.319	0.416	0.554	0.46	0.359
EPLC-272H	0.677	1.1	0.827	0.831	0.263	0.349	0.299	0.249	0.951	0.978	1.02	0.963	0.283	0.318	0.311	0.281	0.242	0.352	0.234	0.159
H3255	0.214	0.252	0.266	0.199	0.352	0.466	0.445	0.413	0.468	0.805	0.705	0.633	0.341	0.473	0.408	0.346	0.31	0.423	0.374	0.32
HARA	0.743	0.802	0.8	0.73	0.429	0.665	0.368	0.458	0.785	0.817	0.817	0.561	0.358	0.194	0.205	0.182	0.398	0.368	0.269	0.205
HCC-15	0.825	0.679	0.733	0.534	0.672	0.668	0.674	0.594	0.864	0.819	0.85	0.646	0.552	0.632	0.505	0.49	0.432	0.443	0.343	0.213
HCC-44	1.06	1.03	0.977	0.773	0.67	0.556	0.564	0.538	0.779	0.843	0.741	0.566					0.242	0.191	0.125	0.176

Source: the supplement of paper PMC10307832
